{
  "source": "patent EP0684822B1",
  "about": "“CARBOCYCLIC DEOXYGUANOSINE ANALOGS FOR THE TREATMENT OF VIRAL INFECTIONS” (SOUTHERN RESEARCH INSTITUTE, priority 1993, dated 1994)",
  "key": {"[1]": {"test_system": "HBV", "assay": "HBV DNA production and replication in 2.2.15 cell cultures", "format": "cell-based, Hepatitis B virus (HBV)", "details": "for INTRACELLULAR HBV DNA INTEG. / INTRACELLULAR HBV DNA MONO. / INTRACELLULAR HBV DNA RI: 24 hours following 10th day of treatment; for HBV DNA IN CULTURE MEDIUM DAY 0: day 0 of treatment", "protocol": "2'-CdG was tested at three concentrations (50 ng/ml, 500 ng/ml, and 5 ug/ml) against the HBV-producing, human liver cell line, 2.2.15 (Sells et al., J. Virol. 62:2836, 1989). A racemic (D,L) preparation, as well as the purified D and L isomers were tested. For these analyses compounds were tested in duplicate at all concentrations. Ara-AMP and ddG (2'3'-dideoxyguanosine) were used as HBV inhibitory control compounds. […] The nucleoside analog, ddG was used as an additional control compound since ddG has activity against duck hepatitis B virus in chronically infected Peking ducks (Lee et al., Antimicrob. Agents Chemother. 33:336, 1989) and 2'-CdG is also a deoxyguanosine analog.\n2.2.15 cells were seeded in 6 well culture plates and grown to confluence over a 10 day period in medium with 5% FBS. Test compounds were then added daily for a continuous 10 day period in medium with 1% dialyzed FBS. […] Compounds were tested, in duplicate cultures, at 3 concentrations covering a 100-fold range. Culture medium (changed daily during the treatment period) was collected and stored for analysis of extracellular (virion) HBV DNA from days 0, 3, 6, and 10 of the treatment period. This allowed for an analysis of the level of HBV virion production during discrete 24 hour intervals and reduced the potential for the buildup of toxic metabolites derived from the test compounds. Treated cells were lysed following the 10th day of treatment for the analysis of intracellular HBV genomic forms. HBV DNA was analyzed in a quantitative manner for (i) overall levels (both extracellular and intracellular DNA) and (ii) the relative rate of HBV replication (intracellular DNA only).\nHBV DNA levels were measured by comparison to known amounts of HBV DNA standards applied to every nitrocellulose filter (gel or slot blot) using an AMBIS Beta Scanner. Standard curves, generated by multiple analyses, were used to correlate CPM measurements with relative levels of target HBV DNA. The levels of HBV DNA in each of three classes of intracellular viral genomic forms were individually quantitated: integrated HBV DNA, episomal monomeric genomes and HBV DNA replication intermediates (RI). Integrated HBV DNA was used to normalize the relative amounts of DNA in each lane because the levels of this class of HBV DNA would be expected to remain constant on a per cell basis. The levels of the monomeric HBV genomes and RI were used as an indicator of the relative level of HBV replication."}, "[2]": {"biological_target": "T1, HSV-1 TK (Human herpesvirus 1, UniProt P0DTH5)", "T1 construct": "HSV thymidine kinase (HSV TK) was isolated from HELA (BU25) cells infected with the SW148 strain of HSV-1; made in house; host or cells: HeLa (BU25) thymidine-kinase-deficient cells infected with HSV-1 strain S148/SW148", "T1 sequence (P0DTH5 whole entry)": "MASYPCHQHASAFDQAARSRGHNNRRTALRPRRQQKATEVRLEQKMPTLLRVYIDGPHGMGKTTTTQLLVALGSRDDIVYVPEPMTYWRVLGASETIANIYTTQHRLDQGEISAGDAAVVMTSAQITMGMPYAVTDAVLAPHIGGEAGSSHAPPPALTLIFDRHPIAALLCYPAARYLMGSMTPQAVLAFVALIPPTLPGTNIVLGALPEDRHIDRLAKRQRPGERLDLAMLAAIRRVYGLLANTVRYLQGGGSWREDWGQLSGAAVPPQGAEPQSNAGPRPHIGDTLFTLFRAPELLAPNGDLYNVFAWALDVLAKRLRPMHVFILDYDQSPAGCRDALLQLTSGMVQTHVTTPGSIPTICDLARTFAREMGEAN", "assay": "Competitive inhibition of [3H]-thymidine phosphorylation by partially purified HSV-1 TK", "format": "biochemical", "protocol": "The Ki's were determined from a plot of the slope of each line versus the concentration of the competitor (D-, L, or D,L-2'CdG) and are summarized below: TABLE 2"}, "[3]": {"test_system": "HSV-1 (strain 377, TK+)", "assay": "Antiviral activity against HSV-1", "format": "cell-based", "protocol": "(§1) D-2'-CdG and L-2'-CdG were tested, alongside D,L-2'-CdG, against both HSV-1 (strain 377, TK+; obtained from Dr. Earl Kern, University of Alabama) and HSV-2 (strain MS, TK+; also obtained from Dr. Earl Kern). In these tests (Table 5), Ara-A and acyclovir (ACV) were the positive control drugs. In four tests vs. HSV-1, the antiviral activity (VR) and potency (MIC50) of D-2'-CdG were approximately the same as those of racemic 2-CdG. L-2'-CdG was only modestly active."}, "[4]": {"test_system": "HSV-2 (strain MS, TK+)", "assay": "Antiviral activity against HSV-2", "format": "cell-based", "protocol": "as §1\nThese compounds were tested against HSV-2(TK^+). The VR of ACV was somewhat higher than the VR values of D-2'-CdG and D,L-2'-CdG, but the values of MIC50 of the two forms of 2'-CdG were lower. In addition, experiments comparing the antiviral activity D-2'-CdG with acyclovir against HSV-1 in human foreskin fibroblasts have shown an even greater potency, in favor of D-2'-CdG."}},
  "note": "pKi: −log10 of the molar value. Several values for one entry are separate records, joined by “and”; a condition that tells them apart may be missing. Equal entries are not always repeated.",
  "data": [
    {"compound": "Nc1ncnc2c1ncn2[C@@H]1O[C@H](COP(=O)(O)O)[C@@H](O)[C@@H]1O", "note": "[ARA-AMP, adenine arabinoside monophosphate, reference compound]", "values": [
      {"measurement": "INTRACELLULAR HBV DNA INTEG.", "setting": "[1]; 300 UG/ML", "result": "1.3 PG/UG CELL DNA and 1.1 PG/UG CELL DNA"},
      {"measurement": "INTRACELLULAR HBV DNA MONO.", "setting": "[1]; 300 UG/ML", "result": 0.1, "unit": "PG/UG CELL DNA"},
      {"measurement": "INTRACELLULAR HBV DNA RI", "setting": "[1]; 300 UG/ML", "result": "0.2 PG/UG CELL DNA and 0.3 PG/UG CELL DNA"},
      {"measurement": "HBV DNA IN CULTURE MEDIUM DAY 0", "setting": "[1]; 300 UG/ML", "result": "100 pg/mL and 95 pg/mL"},
      {"measurement": "HBV DNA IN CULTURE MEDIUM DAY 3", "setting": "[1]; 300 UG/ML", "result": "25 pg/mL and 30 pg/mL"},
      {"measurement": "HBV DNA IN CULTURE MEDIUM DAY 6", "setting": "[1]; 300 UG/ML, day 6", "result": 0, "unit": "pg/mL"},
      {"measurement": "HBV DNA IN CULTURE MEDIUM DAY 10", "setting": "[1]; 300 UG/ML", "result": 0, "unit": "pg/mL"}
    ]},
    {"compound": "Nc1nc2c(ncn2[C@H]2C[C@H](O)[C@@H](CO)O2)c(=O)[nH]1", "note": "[dGuo, reference compound]", "values": [
      {"measurement": "pKi", "setting": "[2]", "result": 4.98}
    ]},
    {"compound": "Nc1ncnc2c1ncn2[C@@H]1O[C@H](CO)[C@@H](O)[C@@H]1O", "note": "[Ara-A, adenosine arabinoside, reference compound]", "values": [
      {"measurement": "VR", "setting": "[3]; HSV-1, range of tests", "result": "1.6-2.5"},
      {"measurement": "EC50", "setting": "[3]; Human alphaherpesvirus 1, read-out: Mic50", "result": "10 to 34", "unit": "mg/L"},
      {"measurement": "VR", "setting": "[4]; HSV-2", "result": 1.3},
      {"measurement": "EC50", "setting": "[4]; Human alphaherpesvirus 2, read-out: Mic50", "result": 50, "unit": "mg/L"}
    ]},
    {"compound": "Nc1nc2c(ncn2[C@H]2CC[C@@H](CO)O2)c(=O)[nH]1", "note": "[DDG, 2'3'-dideoxyguanosine, reference compound]", "values": [
      {"measurement": "INTRACELLULAR HBV DNA INTEG.", "setting": "[1]; 100 uM", "result": "1.6 PG/UG CELL DNA and 1.7 PG/UG CELL DNA"},
      {"measurement": "INTRACELLULAR HBV DNA MONO.", "setting": "[1]; 100 uM", "result": "0.2 PG/UG CELL DNA and 0.1 PG/UG CELL DNA"},
      {"measurement": "INTRACELLULAR HBV DNA RI", "setting": "[1]; 100 uM", "result": 0.1, "unit": "PG/UG CELL DNA"},
      {"measurement": "HBV DNA IN CULTURE MEDIUM DAY 0", "setting": "[1]; 100 uM", "result": "49 pg/mL and 58 pg/mL"},
      {"measurement": "HBV DNA IN CULTURE MEDIUM DAY 3", "setting": "[1]; 100 uM", "result": "35 pg/mL and 41 pg/mL"},
      {"measurement": "HBV DNA IN CULTURE MEDIUM DAY 10", "setting": "[1]; 100 uM", "result": 0, "unit": "pg/mL"}
    ]}
  ]
}
